From US20240041042A1, “1-(PYRIDYL)-5-AZINYLPYRAZOLE DERIVATIVES, AND THEIR USE FOR CONTROL OF UNDESIRED PLANT GROWTH” (Bayer Aktiengesellschaft, priority 2020, published 2024)
Read-outs that look alike come from different tables or passages of the source.

Experiments:
Type in all cases: in vivo
[1] = test system: Digitaria sanguinalis (DIGSA); experiment: Post-emergence herbicidal action against DIGSA; conditions: 320 g/ha, visual rating about 3 weeks after treatment
Summary of the method: (§1)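 Doses of 320 g/ha or lower, suffixes a, b and c marking different dosages, were applied post-emergence at the one-leaf stage in 600 l/ha water with 0.5% additive. Damage was assessed visually after about 3 weeks in the greenhouse.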

Viola tricolor (VIOTR) [2] = experiment: Post-emergence herbicidal action against VIOTR
Summary of the method: as §1

Oryza sativa (ORYSA) = conditions: crop plant compatibility, effect in comparison to untreated controls
Summary of the method: (§2)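 Effects were read visually as % versus untreated controls (0% = no effect, 100% = death) about 3 weeks post-treatment. Application was a post-emergence spray at the one-leaf stage of WP/EC formulations with 0.5% additive at 600 l/ha. Different dosages are denoted a, b and c.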

Zea mays (ZEAMX) [3] = conditions: crop plant compatibility, effect vs untreated controls
Summary of the method: as §2

[4] = test system: Echinochloa crus-galli (ECHCG); experiment: Post-emergence herbicidal action against ECHCG; conditions: dosage 320 g/ha
Summary of the method: as §1

[5] = test system: Polygonum convolvulus (POLCO); experiment: Post-emergence herbicidal action against POLCO; conditions: dosage 320 g/ha
Summary of the method: as §1

[6] = test system: Digitaria sanguinalis (DIGSA); experiment: Pre-emergence herbicidal action against DIGSA; conditions: dosage 320 g/ha
Summary of the method: (§3)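 Pre-emergence soil-surface spray, WP/EC formulation, 0.5% additive, 600 l/ha water, rates of 320 g/ha or lower. Greenhouse, ~3 wk. Visual score, % of untreated control (100% = plants dead, 0% = like control).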

[7] = test system: Alopecurus myosuroides (ALOMY); experiment: Post-emergence herbicidal action against ALOMY; conditions: 320 g/ha, visual rating about 3 weeks after treatment vs untreated controls (100% = plants have died, 0% = like control plants)
Summary of the method: as §1

Glycine max (GLXMA) = conditions: pre-emergence, 80 g/ha, crop plant compatibility, in comparison to untreated controls
Summary of the method: (§4)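 Crop injury rated visually in percent against untreated plants roughly 3 weeks after treatment (0% no effect, 100% plants dead). Compounds, as WP or EC with 0.5% additive in 600 l/ha water, were applied to the covering soil right after sowing; greenhouse growth. Suffixes a, b, c denote different dosages.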

[8] = test system: Polygonum convolvulus (POLCO); experiment: Pre-emergence herbicidal action against POLCO
Summary of the method: as §3

Viola tricolor (VIOTR) [9] = experiment: Pre-emergence herbicidal action against VIOTR
Summary of the method: as §3

[10] = test system: Matricaria inodora (MATIN); experiment: Pre-emergence herbicidal action against MATIN
Summary of the method: as §3

Setaria viridis (SETVI) [11] = experiment: Pre-emergence herbicidal action against SETVI; conditions: dosage 320 g/ha
Summary of the method: as §3

[12] = test system: Alopecurus myosuroides (ALOMY); experiment: Pre-emergence herbicidal action against ALOMY; conditions: 320 g/ha; scored visually after about 3 weeks; 100% = plants have died
Summary of the method: as §3

Lolium rigidum (LOLRI) [13] = experiment: Post-emergence herbicidal action against LOLRI; conditions: dosage 320 g/ha
Summary of the method: as §1

Lolium rigidum (LOLRI) [14] = experiment: Pre-emergence herbicidal action against LOLRI; conditions: dosage 320 g/ha
Summary of the method: as §3

[15] = test system: Amaranthus retroflexus (AMARE); experiment: Pre-emergence herbicidal action against AMARE; conditions: 320 g/ha, visual scoring after about 3 weeks vs untreated controls
Summary of the method: as §3

[16] = test system: Triticum aestivum (TRZAS); conditions: crop plant compatibility, 80 g/ha, effect vs untreated controls
Summary of the method: as §2

[17] = test system: Pharbitis purpurea (PHBPU); experiment: Pre-emergence herbicidal action against PHBPU; conditions: dosage 320 g/ha
Summary of the method: as §3

[18] = test system: Amaranthus retroflexus (AMARE); experiment: Post-emergence herbicidal action against AMARE
Summary of the method: as §1

[19] = test system: Verconica persica (VERPE); experiment: Post-emergence herbicidal action against VERPE
Summary of the method: as §1

[20] = test system: Pharbitis purpurea (PHBPU); experiment: Post-emergence herbicidal action against PHBPU; conditions: dosage 320 g/ha
Summary of the method: as §1

[21] = test system: Echinochloa crus-galli (ECHCG); experiment: Pre-emergence herbicidal action against ECHCG; conditions: dosage 320 g/ha
Summary of the method: as §3

Setaria viridis (SETVI) [22] = experiment: Post-emergence herbicidal action against SETVI; conditions: dosage 320 g/ha
Summary of the method: as §1

Avena fatua (AVEFA) [23] = experiment: Pre-emergence herbicidal action against AVEFA; conditions: 320 g/ha, visual scoring after about 3 weeks vs untreated controls
Summary of the method: as §3

Zea mays (ZEAMX) [24] = conditions: pre-emergence, 80 g/ha, crop plant compatibility, in comparison to untreated controls
Summary of the method: as §4

Avena fatua (AVEFA) [25] = experiment: Post-emergence herbicidal action against AVEFA; conditions: 320 g/ha, visual rating about 3 weeks after treatment
Summary of the method: as §1

[26] = 320 g/ha, visual rating about 3 weeks after treatment

Post-emergence action against ORYSA in % (Oryza sativa (ORYSA); 80 g/ha) | Post-emergence action against ORYSA in % (Oryza sativa (ORYSA); 320 g/ha) | Post-emergence action against ZEAMX in % (Zea mays (ZEAMX) [3]; 80 g/ha) | Pre-emergence action against GLXMA in % (Glycine max (GLXMA)) | SMILES | Post-emergence action against VIOTR in % (Viola tricolor (VIOTR) [2]; 320 g/ha) | Post-emergence action against ECHCG in % [4] | Post-emergence action against POLCO in % [5] | Pre-emergence action against DIGSA in % [6] | Post-emergence action against ALOMY in % [7] | Pre-emergence action against POLCO in % ([8]; dosage 320 g/ha) | Pre-emergence action against VIOTR in % (Viola tricolor (VIOTR) [9]; 320 g/ha, Viola tricolor) | Pre-emergence action against VIOTR in % (Viola tricolor (VIOTR) [9]; dosage 80 g/ha) | Pre-emergence action against MATIN in % ([10]; dosage 320 g/ha) | Pre-emergence action against SETVI in % (Setaria viridis (SETVI) [11]) | Pre-emergence action against ALOMY [12] | Post-emergence action against LOLRI in % (Lolium rigidum (LOLRI) [13]) | Pre-emergence action against LOLRI in % (Lolium rigidum (LOLRI) [14]) | Pre-emergence action against AMARE in % [15] | Post-emergence action against AMARE in % [18, 26] | Post-emergence action against VERPE in % ([19]; 320 g/ha, VERPE) | also measured
0% | 0% | 20% | 10% | CC(C)C(Oc1nn(-c2ccccn2)c(-c2ccc(F)nc2)c1Br)C(=O)O (stereo not drawn) [Example I-347] | 80% | 80% | 80% | 90% | 80% | 80% | 100% | 90% | 80% | 80% | 80% |  |  |  |  |  | Post-emergence action against DIGSA in % [1]: 80%; Post-emergence action against VIOTR in % (Viola tricolor (VIOTR) [2]; 80 g/ha): 80%
0% | 0% | 10% | 20% | C[C@@H](Oc1nn(-c2ccccn2)c(-c2ccc(Cl)nc2)c1Br)C(=O)O [Example I-240] | 80% |  | 80% | 90% | 80% |  | 90% |  |  |  | 90% | 80% | 90% | 90% |  |  | Post-emergence action against ZEAMX in % (Zea mays (ZEAMX) [3]; 320 g/ha): 20%
0% |  | 0% | 20% | O=C(O)COc1nn(-c2ncccc2C(F)(F)F)c(-c2cncc(F)c2)c1Br [Example I-230] | 80% | 80% | 80% |  |  | 90% | 90% | 80% |  | 100% |  |  |  | 80% | 90% | 80% | Post-emergence action against TRZAS in % [16]: 10%; Pre-emergence action against PHBPU in % [17]: 90%; Post-emergence action against VERPE in % ([19]; dosage 80 g/ha): 80%; Pre-emergence action against POLCO in % ([8]; dosage 80 g/ha): 80%; Post-emergence action against PHBPU in % [20]: 90%; Pre-emergence action against ECHCG in % [21]: 90%; Post-emergence action against SETVI in % (Setaria viridis (SETVI) [22]): 80%
0% |  |  | 0% | C[C@@H](Oc1nn(-c2ncccc2F)c(-c2ccc(F)nc2)c1F)C(=O)O [Example I-306] | 80% | 90% | 80% |  | 100% |  | 80% |  | 90% | 80% | 90% | 90% | 100% | 90% | 80% | 90% | Post-emergence action against AMARE in % ([18]; 80 g/ha, visual rating about 3 weeks after treatment vs untreated controls (100% = plants have died, 0% = like control plants)): 80%; Pre-emergence action against AVEFA in % (Avena fatua (AVEFA) [23]): 80%; Pre-emergence action against ZEAMX in % (Zea mays (ZEAMX) [24]): 20%; Post-emergence action against AVEFA in % (Avena fatua (AVEFA) [25]): 80%; Pre-emergence action against MATIN in % ([10]; dosage 80 g/ha): 90%; Post-emergence action against SETVI in % (Setaria viridis (SETVI) [22]): 90%
